In the supplement of paper PMC9013687:
± gives the standard deviation of the averaged measurements.

Legend:
Danio rerio embryo [1] = assay: EC50 Eye size_Decrease; conditions: exposure time: 2 dpf
Procedure: (§1)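 Zebrafish embryos (UFZ-OBI strain) were exposed from 2 hpf for 48 h (2 dpf) or 96 h (4 dpf) at 28 °C; spontaneous tail coiling was scored at 25 hpf. Morphological features from automated image analysis (FishInspector), heart rate and locomotor response were fitted with drc models. Quantal endpoints were dichotomised at 2.5 SD from controls and fitted with a log-logistic model; heart rate, pigmentation and STC were normalised to the replicate control mean. Betamethasone was tested as betamethasone dipropionate, diflorasone as diflorasone diacetate.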

Danio rerio embryo [2] = assay: EC10 Pericard size_Increase; higher = less potent
Procedure: as §1

Danio rerio embryo [3] = assay: EC50 Head trunk angle_Decrease; conditions: exposure time: 2 dpf
Procedure: as §1

Danio rerio embryo [4] = assay: EC10 Pigmentation decrease; higher = less potent; conditions: exposure time: 2 dpf
Procedure: as §1

Danio rerio embryo [5] = assay: EC20 Eye size_Decrease; higher = less potent; conditions: exposure time: 2 dpf
Procedure: as §1

Danio rerio embryo [6] = assay: EC10 Body length_Decrease; higher = less potent; conditions: exposure time: 2 dpf
Procedure: as §1

Danio rerio embryo [7] = assay: EC10 Head size_Decrease; higher = less potent
Procedure: as §1

Danio rerio embryo [8] = assay: EC50 Curvature_Increase
Procedure: as §1

Danio rerio embryo [9] = assay: EC10 Eye size_Decrease; higher = less potent; conditions: exposure time: 2 dpf
Procedure: as §1

Danio rerio embryo [10] = assay: EC10 Bladder size_Decrease; higher = less potent; conditions: exposure time: 4 dpf
Procedure: as §1

Danio rerio embryo [11] = assay: EC50 Bladder size_Decrease; conditions: exposure time: 4 dpf
Procedure: as §1

Danio rerio embryo [12] = assay: spontaneous tail coiling frequency (coils/min/embryo); higher = more spontaneous movement; conditions: 25 hpf
Procedure: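 Spontaneous tail coilings of zebrafish embryos exposed from 2 hpf were recorded at 24-25 hpf in 1-min videos and detected by a KNIME workflow from grey-value variance. Betamethasone was tested as the dipropionate, diflorasone as the diacetate.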

Danio rerio embryo [13] = assay: EC10 Curvature_Increase; higher = less potent
Procedure: as §1

Danio rerio embryo [14] = assay: EC50 Head size_Decrease
Procedure: as §1

Danio rerio embryo [15] = assay: EC10 Lack of SB; higher = less potent; conditions: exposure time: 4 dpf
Procedure: as §1

Danio rerio embryo [16] = assay: EC20 Any effect; higher = less potent
Procedure: as §1

Danio rerio embryo [17] = conditions: exposure time: 4 dpf
Procedure: as §1

Danio rerio embryo [18] = assay: EC50 Body length_Decrease; conditions: exposure time: 2 dpf
Procedure: as §1

Danio rerio embryo [19] = assay: EC20 Bladder size_Decrease; higher = less potent; conditions: exposure time: 4 dpf
Procedure: as §1

Danio rerio embryo [20] = system: Danio rerio embryo
Procedure: as §1

Danio rerio embryo [21] = assay: EC20 Curvature_Increase; higher = less potent
Procedure: as §1

Danio rerio embryo [22] = assay: EC20 Pigmentation decrease; higher = less potent; conditions: exposure time: 2 dpf
Procedure: as §1

Danio rerio embryo [23] = assay: EC10 Any effect; higher = less potent
Procedure: as §1

Danio rerio embryo [24] = assay: EC20 Pericard size_Increase; higher = less potent
Procedure: as §1

Danio rerio embryo [25] = assay: EC20 Head trunk angle_Decrease; higher = less potent; conditions: exposure time: 2 dpf
Procedure: as §1

Danio rerio embryo [26] = conditions: exposure time: 2 dpf
Procedure: as §1

Danio rerio embryo [27] = assay: EC50 Pericard size_Increase
Procedure: as §1

Danio rerio embryo [28] = assay: EC20 Lack of SB; higher = less potent; conditions: exposure time: 4 dpf
Procedure: as §1

Danio rerio embryo [29] = assay: EC10 Head trunk angle_Decrease; higher = less potent; conditions: exposure time: 2 dpf
Procedure: as §1

Danio rerio embryo [30] = assay: EC20 Head size_Decrease; higher = less potent
Procedure: as §1

Danio rerio embryo [31] = assay: EC20 Body length_Decrease; higher = less potent; conditions: exposure time: 2 dpf
Procedure: as §1

SMILES: COC(=O)Nc1nc2ccccc2[nH]1 [Carbendazim]
- EC50 Eye size Decrease (Danio rerio embryo [1]): 3.3 µM
- EC10 Pericard size Increase (Danio rerio embryo [2]; exposure time: 2 dpf): 2.94 µM
- EC10 Pericard size Increase (Danio rerio embryo [2]; exposure time: 4 dpf): 2.63 µM
- EC50 Head trunk angle Decrease (Danio rerio embryo [3]): 3.47 µM
- EC10 Pigmentation decrease (Danio rerio embryo [4]): 2.53 µM
- EC20 Eye size Decrease (Danio rerio embryo [5]): 2.9 µM
- EC10 Body length Decrease (Danio rerio embryo [6]): 2.9 µM
- EC10 Head size Decrease (Danio rerio embryo [7]; exposure time: 2 dpf): 2.81 µM
- EC50 Curvature Increase (Danio rerio embryo [8]; exposure time: 2 dpf): 3.27 µM
- EC50 Curvature Increase (Danio rerio embryo [8]; exposure time: 4 dpf): 3.26 µM
- EC10 Eye size Decrease (Danio rerio embryo [9]): 2.69 µM
- EC10 Bladder size Decrease (Danio rerio embryo [10]): 0.977 µM
- EC50 Bladder size Decrease (Danio rerio embryo [11]): 2.25 µM
- spontaneous tail coiling frequency (Danio rerio embryo [12]; 0.23 µM): 2.14
- spontaneous tail coiling frequency (Danio rerio embryo [12]; 0.344 µM): 1.91
- spontaneous tail coiling frequency (Danio rerio embryo [12]; 0.517 µM): 2.25
- spontaneous tail coiling frequency (Danio rerio embryo [12]; 0.775 µM): 2.51 ± 0.64
- spontaneous tail coiling frequency (Danio rerio embryo [12]; 1.16 µM): 1.06
- spontaneous tail coiling frequency (Danio rerio embryo [12]; 1.162 µM): 2.68
- spontaneous tail coiling frequency (Danio rerio embryo [12]; 1.74 µM): 1.81
- spontaneous tail coiling frequency (Danio rerio embryo [12]; 1.743 µM): 1.56
- spontaneous tail coiling frequency (Danio rerio embryo [12]; 2.615 µM): 2.98
- spontaneous tail coiling frequency (Danio rerio embryo [12]; 2.62 µM): 2.11
- spontaneous tail coiling frequency (Danio rerio embryo [12]; 3.138 µM): 4.11
- spontaneous tail coiling frequency (Danio rerio embryo [12]; 3.661 µM): 3.75
- EC10 Curvature Increase (Danio rerio embryo [13]; exposure time: 2 dpf): 2.71 µM
- EC10 Curvature Increase (Danio rerio embryo [13]; exposure time: 4 dpf): 2.68 µM
- EC50 Head size Decrease (Danio rerio embryo [14]; exposure time: 2 dpf): 3.51 µM
- EC10 Lack of SB (Danio rerio embryo [15]): 2.3 µM
- EC20 Any effect (Danio rerio embryo [16]; exposure time: 2 dpf): 2.98 µM
- EC20 Any effect (Danio rerio embryo [16]; exposure time: 4 dpf): 2.85 µM
- EC50 Lack of SB (Danio rerio embryo [17]): 2.7 µM
- EC50 Body length Decrease (Danio rerio embryo [18]): 3.04 µM
- EC20 Bladder size Decrease (Danio rerio embryo [19]): 1.33 µM
- EC50 Any effect (Danio rerio embryo [20]; exposure time: 2 dpf): 3.05 µM
- EC50 Any effect (Danio rerio embryo [20]; exposure time: 4 dpf): 3.09 µM
- EC20 Curvature Increase (Danio rerio embryo [21]; exposure time: 2 dpf): 2.9 µM
- EC20 Curvature Increase (Danio rerio embryo [21]; exposure time: 4 dpf): 2.88 µM
- EC20 Pigmentation decrease (Danio rerio embryo [22]): 2.8 µM
- EC10 Any effect (Danio rerio embryo [23]; exposure time: 2 dpf): 2.93 µM
- EC10 Any effect (Danio rerio embryo [23]; exposure time: 4 dpf): 2.72 µM
- EC20 Pericard size Increase (Danio rerio embryo [24]; exposure time: 2 dpf): 3.11 µM
- EC20 Pericard size Increase (Danio rerio embryo [24]; exposure time: 4 dpf): 2.76 µM
- EC20 Head trunk angle Decrease (Danio rerio embryo [25]): 2.98 µM
- EC50 Pigmentation decrease (Danio rerio embryo [26]): 3.34 µM
- EC50 Pericard size Increase (Danio rerio embryo [27]; exposure time: 2 dpf): 3.43 µM
- EC50 Pericard size Increase (Danio rerio embryo [27]; exposure time: 4 dpf): 2.99 µM
- EC20 Lack of SB (Danio rerio embryo [28]): 2.44 µM
- EC10 Head trunk angle Decrease (Danio rerio embryo [29]): 2.73 µM
- EC20 Head size Decrease (Danio rerio embryo [30]; exposure time: 2 dpf): 3.05 µM
- EC20 Body length Decrease (Danio rerio embryo [31]): 2.95 µM

SMILES: COc1cccc2c1C(=O)c1c(O)c3c(c(O)c1C2=O)C[C@@](O)(C(C)=O)C[C@@H]3O[C@H]1C[C@H](N)[C@H](O)[C@H](C)O1 [Daunorubicin]
- EC10 Body length Decrease (Danio rerio embryo [6]): 68.5 µM
- EC10 Head size Decrease (Danio rerio embryo [7]; exposure time: 4 dpf): 12.4 µM
- EC10 Bladder size Decrease (Danio rerio embryo [10]): 9.82 µM
- EC50 Bladder size Decrease (Danio rerio embryo [11]): 46.8 µM
- spontaneous tail coiling frequency (Danio rerio embryo [12]; 17.5 µM): 2.64
- spontaneous tail coiling frequency (Danio rerio embryo [12]; 23.3 µM): 1.8
- spontaneous tail coiling frequency (Danio rerio embryo [12]; 26.3 µM): 3.47
- spontaneous tail coiling frequency (Danio rerio embryo [12]; 35 µM): 2.25
- spontaneous tail coiling frequency (Danio rerio embryo [12]; 39.4 µM): 2.69
- spontaneous tail coiling frequency (Danio rerio embryo [12]; 52.5 µM): 2.33
- spontaneous tail coiling frequency (Danio rerio embryo [12]; 59.1 µM): 2.7
- spontaneous tail coiling frequency (Danio rerio embryo [12]; 78.8 µM): 2.14
- spontaneous tail coiling frequency (Danio rerio embryo [12]; 88.7 µM): 2.85
- EC50 Head size Decrease (Danio rerio embryo [14]; exposure time: 4 dpf): 43.4 µM
- EC10 Lack of SB (Danio rerio embryo [15]): 13.3 µM
- EC20 Any effect (Danio rerio embryo [16]; exposure time: 2 dpf): 68.6 µM
- EC20 Any effect (Danio rerio embryo [16]; exposure time: 4 dpf): 87.6 µM
- EC50 Lack of SB (Danio rerio embryo [17]): 72.3 µM
- EC50 Body length Decrease (Danio rerio embryo [18]): 106 µM
- EC20 Bladder size Decrease (Danio rerio embryo [19]): 17.5 µM
- EC50 Any effect (Danio rerio embryo [20]; exposure time: 2 dpf): 185 µM
- EC50 Any effect (Danio rerio embryo [20]; exposure time: 4 dpf): 90.6 µM
- EC10 Any effect (Danio rerio embryo [23]; exposure time: 2 dpf): 38.3 µM
- EC10 Any effect (Danio rerio embryo [23]; exposure time: 4 dpf): 85.9 µM
- EC20 Lack of SB (Danio rerio embryo [28]): 24.9 µM
- EC20 Head size Decrease (Danio rerio embryo [30]; exposure time: 4 dpf): 19.7 µM
- EC20 Body length Decrease (Danio rerio embryo [31]): 80.4 µM
